From ChEMBL document CHEMBL1649130, “In vitro activity of Iclaprim against respiratory and bacteremic isolates of Streptococcus pneumoniae” (Antimicrob Agents Chemother, 2009)
In brackets after ≈: the same amount, converted by molar mass.

Assays:
Streptococcus pneumoniae [1] = test: Antimicrobial activity against Streptococcus pneumoniae assessed as resistant isolates broth microdilution method; format: functional
Streptococcus pneumoniae [2] = test: Antimicrobial activity against compound-resistant Streptococcus pneumoniae by broth microdilution method
Streptococcus pneumoniae [3] = test: Antimicrobial activity against compound-intermediate Streptococcus pneumoniae by broth microdilution method
Streptococcus pneumoniae [4] = test: Antimicrobial activity against compound-susceptible Streptococcus pneumoniae by broth microdilution method
[5] = Drug concentration in alveolar macrophages of patient with Streptococcus pneumoniae infections at 1.6 mg/kg, iv administered as single 60 mins infusion measured after 1 to 2 hrs; format: ADME, organism-based, Macrophage; parameters: dose 1.6 mg/kg, route intravenous; settings: human, in vivo
[6] = Drug concentration in alveolar macrophages of patient with Streptococcus pneumoniae infections at 1.6 mg/kg, iv administered as single 60 mins infusion measured after 3 to 4 hrs; format: ADME, organism-based, Macrophage; parameters: dose 1.6 mg/kg, route intravenous; settings: human, in vivo
Streptococcus pneumoniae [7] = test: Antimicrobial activity against penicillin-susceptible Streptococcus pneumoniae by broth microdilution method; format: functional
[8] = Drug concentration in epithelial lining fluid of patient with Streptococcus pneumoniae infections at 1.6 mg/kg, iv administered as single 60 mins infusion measured after 1 to 2 hrs; format: ADME, organism-based; parameters: dose 1.6 mg/kg, route intravenous; settings: human, in vivo
Streptococcus pneumoniae [9] = test: Antimicrobial activity against SXT-susceptible Streptococcus pneumoniae by broth microdilution method; format: functional
[10] = Drug concentration in epithelial lining fluid of patient with Streptococcus pneumoniae infections at 1.6 mg/kg, iv administered as single 60 mins infusion measured after 3 to 4 hrs; format: ADME, organism-based; parameters: dose 1.6 mg/kg, route intravenous; settings: human, in vivo
[11] = Drug concentration in alveolar macrophages of patient with Streptococcus pneumoniae infections at 1.6 mg/kg, iv administered as single 60 mins infusion measured after 5.5 to 7 hrs; format: ADME, organism-based, Macrophage; parameters: dose 1.6 mg/kg, route intravenous; settings: human, in vivo
[12] = Drug concentration in epithelial lining fluid of patient with Streptococcus pneumoniae infections at 1.6 mg/kg, iv administered as single 60 mins infusion measured after 5.5 to 7 hrs; format: ADME, organism-based; parameters: dose 1.6 mg/kg, route intravenous; settings: human, in vivo
Streptococcus pneumoniae [13] = test: Antimicrobial activity against Ciprofloxacin-susceptible Streptococcus pneumoniae by broth microdilution method; format: functional
Streptococcus pneumoniae [14] = test: Antimicrobial activity against Doxycycline-susceptible Streptococcus pneumoniae by broth microdilution method; format: functional
[15] = Streptococcus pneumoniae, read-out: MIC50

With `CC[C@H]1OC(=O)[C@H](C)[C@@H](O[C@H]2C[C@@](C)(OC)[C@@H](O)[C@H](C)O2)[C@H](C)[C@@H](O[C@@H]2O[C@H](C)C[C@H](N(C)C)[C@H]2O)[C@](C)(OC)C[C@@H](C)C(=O)[C@H](C)[C@@H](O)[C@]1(C)O` [CLARITHROMYCIN] as the molecule, how does the Activity (Streptococcus pneumoniae [1]) read?
The Activity was 11.8%.

What does the source list for `O=C(O)c1cn(C2CC2)c2cc(N3CCNCC3)c(F)cc2c1=O` [CIPROFLOXACIN]?
MIC (Streptococcus pneumoniae [2]): ≥ 4 µg/mL; Activity (Streptococcus pneumoniae [1]): 1.7%; MIC (Streptococcus pneumoniae [3]): 2 µg/mL (≈ 6.04 µM); MIC (Streptococcus pneumoniae [4]): ≤ 1 µg/mL

With `COc1cc(Cc2cnc(N)nc2N)c2c(c1OC)OC(C1CC1)C=C2` (stereo unspecified) [ICLAPRIM] as the molecule, how does the Drug uptake [5] read?
The Drug uptake was 24.5 µg/mL.

What about the Drug uptake [6] of the same molecule?
The Drug uptake was 7.16 µg/mL.

And the MIC50 (Streptococcus pneumoniae [7])?
The MIC50 was 0.06 µg/mL (≈ 0.169 µM).

And the MIC50 (Streptococcus pneumoniae [7]; [15])?
The MIC50 was no more than 0.03 µg/mL.

And the Drug uptake [8]?
The Drug uptake was 12.61 µg/mL.

What about the MIC50 (Streptococcus pneumoniae [9]) of the same molecule?
Its MIC50 is 0.06 µg/mL (≈ 0.169 µM).

What about the MIC50 (Streptococcus pneumoniae [9]; [15]) of the same molecule?
Its MIC50 is no more than 0.03 µg/mL.

And the Drug uptake [10]?
The Drug uptake was 6.38 µg/mL.

And the Drug uptake [11]?
The Drug uptake was 5.28 µg/mL.

And the Drug uptake [12]?
The Drug uptake was 2.66 µg/mL.

What about the MIC50 (Streptococcus pneumoniae [13]) of the same molecule?
Its MIC50 is 0.06 µg/mL (≈ 0.169 µM).

And the MIC50 (Streptococcus pneumoniae [13]; [15])?
Its MIC50 is no more than 0.03 µg/mL.

And the MIC50 (Streptococcus pneumoniae [14])?
Its MIC50 is 0.06 µg/mL (≈ 0.169 µM).

And the MIC50 (Streptococcus pneumoniae [14]; [15])?
The MIC50 was no more than 0.03 µg/mL.

With `C[C@H]1c2cccc(O)c2C(=O)C2=C(O)[C@]3(O)C(=O)C(C(N)=O)=C(O)[C@@H](N(C)C)[C@@H]3[C@@H](O)[C@@H]21.O` [DOXYCYCLINE] as the molecule, how does the Activity (Streptococcus pneumoniae [1]) read?
Its Activity is 0.9%.

With `CC1(C)S[C@@H]2[C@H](NC(=O)Cc3ccccc3)C(=O)N2[C@H]1C(=O)O` [PENICILLIN G] as the molecule, how does the Activity (Streptococcus pneumoniae [1]) read?
The Activity was 6.8%.
